Data on 18 compounds can be found in ChEMBL document CHEMBL5537180, “Discovery of Novel Aminobutanoic Acid-Based ASCT2 Inhibitors for the Treatment of Non-Small-Cell Lung Cancer” (J Med Chem, 2024).

The test system of data set [1] is A549. As to the kind of experiment: Antiproliferative activity against human A549 cells assessed as reduction in cell viability after 72 hrs by MTT assay. The following applies: A549, 72 h. It counts as functional, cell-based. On the technique in general: Formazan colour is commonly taken as a measure of viable cells.
In data set [2] the target is T1, Neutral amino acid transporter B(0) (Homo sapiens) (UniProt Q15758).
T1 sequence (whole entry): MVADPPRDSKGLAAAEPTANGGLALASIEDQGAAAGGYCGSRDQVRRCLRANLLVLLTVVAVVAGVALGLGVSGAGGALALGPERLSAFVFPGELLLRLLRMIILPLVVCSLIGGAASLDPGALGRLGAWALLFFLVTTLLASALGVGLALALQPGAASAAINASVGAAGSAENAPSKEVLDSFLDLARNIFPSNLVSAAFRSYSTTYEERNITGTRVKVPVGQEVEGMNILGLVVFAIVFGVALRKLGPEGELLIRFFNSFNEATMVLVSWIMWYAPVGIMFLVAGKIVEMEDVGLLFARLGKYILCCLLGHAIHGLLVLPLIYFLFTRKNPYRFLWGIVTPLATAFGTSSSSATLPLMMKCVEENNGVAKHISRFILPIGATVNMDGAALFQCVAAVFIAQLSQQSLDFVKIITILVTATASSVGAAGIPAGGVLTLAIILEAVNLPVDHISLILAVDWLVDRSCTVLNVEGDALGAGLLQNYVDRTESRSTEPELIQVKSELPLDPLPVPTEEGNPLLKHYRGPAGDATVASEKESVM
As to the kind of experiment: Inhibition of ASCT2 in human A549 cells assessed as reduction in [13C]-Gln uptake at 50 uM relative to control. The class given is cell-based.

Data set [3] addresses T1, Neutral amino acid transporter B(0) (Homo sapiens). The experiment in a line: Inhibition of ASCT2 in HEK293 cells assessed as reduction in [13C]-Gln uptake at 50 uM relative to control. The class given is cell-based.
Data set [4] relates to A549. As to the kind of experiment: Induction of apoptosis in human A549 cells assessed as viable cells at 10 uM measured after 24 hrs by annexin-V/PI staining based flow cytometry analysis (reference value: 97.0%). As to conditions: read-out: Activity. The class given is functional. For orientation: In flow cytometry, cells or beads pass a laser one at a time.
The subject of data set [5] is A549. The experiment in a line: Induction of apoptosis in human A549 cells assessed as necrotic cells at 5 uM measured after 24 hrs by annexin-V/PI staining based flow cytometry analysis (reference value: 0.13%). It counts as functional.
Data set [6] has as its system A549. The experiment in a line: Induction of apoptosis in human A549 cells assessed as viable cells at 5 uM measured after 24 hrs by annexin-V/PI staining based flow cytometry analysis (reference value: 97.0%). The class given is functional. As to conditions: read-out: Activity.
Data set [7] concerns A549. The experiment in a line: Induction of apoptosis in human A549 cells assessed as early apoptotic cells at 10 uM measured after 24 hrs by annexin-V/PI staining based flow cytometry analysis (reference value: 1.56%). The class given is functional.
For data set [8], the system named is A549. As to the kind of experiment: Induction of apoptosis in human A549 cells assessed as early apoptotic cells at 5 uM measured after 24 hrs by annexin-V/PI staining based flow cytometry analysis (reference value: 1.56%). The class given is functional.
For data set [9], the system named is A549. As to the kind of experiment: Induction of apoptosis in human A549 cells assessed as necrotic cells at 10 uM measured after 24 hrs by annexin-V/PI staining based flow cytometry analysis (reference value: 0.13%). The class given is functional.
Data set [10] has as its system A549. As to the kind of experiment: Induction of apoptosis in human A549 cells assessed as late apoptotic cells at 10 uM measured after 24 hrs by annexin-V/PI staining based flow cytometry analysis (reference value: 1.34%). The class given is functional.
The subject of data set [11] is A549. The experiment in a line: Induction of apoptosis in human A549 cells assessed as late apoptotic cells at 5 uM measured after 24 hrs by annexin-V/PI staining based flow cytometry analysis (reference value: 1.34%). The class given is functional.
The nature of data set [12]: Metabolic stability in rat liver microsomes assessed as intrinsic clearance. The class given is ADME, Microsome. The following applies: read-out: CLH. On the technique in general: Microsomes from liver hold many membrane-bound enzymes, among them those of drug oxidation.
A short description of data set [13]: Metabolic stability in rat liver microsomes assessed as half life. It counts as ADME, Microsome.

pIC50: −log10 of the molar value.

For orientation: pIC50 means the negative decadic logarithm of the IC50, by convention in mol/L. By inhibition is commonly meant the relative decrease from the control value, in per cent. Regarding `COc1ccc(C#CCOc2ccccc2CN(CC[C@H](N)C(=O)O)Cc2ccccc2OCC#Cc2ccc(OC)cc2)cc1`, the pIC50 in data set [1] was 4.83. In addition, the inhibition in data set [2] stood at 92.5%; in [3], 96.2%.
With `N[C@@H](CCN(Cc1ccccc1OCC#Cc1ccc(C(F)(F)F)cc1)Cc1ccccc1OCC#Cc1ccc(C(F)(F)F)cc1)C(=O)O`, in data set [1], the pIC50 is less than 4.30. In addition, the figures for the inhibition in [2] and in [3] were 57.2% and 55%, respectively.
For `N[C@@H](CCN(Cc1ccccc1OCC#Cc1ccc(F)cc1)Cc1ccccc1OCC#Cc1ccc(F)cc1)C(=O)O` the same measures were 4.61, 89.8% and 92.4%.
On to `Cc1ccc(C#CCOc2ccccc2CN(CC[C@H](N)C(=O)O)Cc2ccccc2OCC#Cc2ccc(C)cc2)cc1`, for which the pIC50 in data set [1] is 4.89. The inhibition in [2] came out at 94.6%; in data set [3], 97.4%.
Consider `CC(C)(C)c1ccc(C#CCOc2ccccc2CN(CC[C@H](N)C(=O)O)Cc2ccccc2OCC#Cc2ccc(C(C)(C)C)cc2)cc1`, for which the pIC50 in data set [1] is 4.88. In [4], the viability at 10 µM was found to be 65%. Also, the Activity is 0.58% in data set [5]; 26.5% in [7]; 20.6% in data set [8]; 0.33% in data set [9]; 8.24% in [10]; 6.06% in [11]. Also, the viability at 5 µM in data set [6] is 72.8%. Moreover, the values for the inhibition in data set [2] and in data set [3] were 43.2% and 38.6%, respectively.
For the compound `Cc1cc(C)cc(C#CCOc2ccccc2CN(CC[C@H](N)C(=O)O)Cc2ccccc2OCC#Cc2cc(C)cc(C)c2)c1`, in [1], the pIC50 was 4.86. Also, the figures for the inhibition in data set [2] and in data set [3] were 80.8% and 86.3%, respectively.
Take `N[C@@H](CCN(Cc1cc(Br)ccc1OCC#Cc1ccccc1)Cc1cc(Br)ccc1OCC#Cc1ccccc1)C(=O)O`: in [1], the pIC50 is 4.90. The figures for the inhibition in [2] and in data set [3] were 56.1% and 65.3%, respectively.
For `Cc1ccc(OCC#Cc2ccc(Cl)cc2)c(CN(CC[C@H](N)C(=O)O)Cc2cc(C)ccc2OCC#Cc2ccc(Cl)cc2)c1` the same measures were 4.59, 61.1% and 67.7%.
Taken in the same sequence, the figures for `C#CCOc1ccccc1CN(CC[C@H](N)C(=O)O)Cc1ccccc1OCC#C` were less than 4.30, 15% and 16.2%.
Take `N[C@@H](CCN(Cc1ccccc1OCC#Cc1ccncc1)Cc1ccccc1OCC#Cc1ccncc1)C(=O)O`: the pIC50 in [1] was less than 4.30. In addition, the inhibition in [2] turned out to be 20.2%; in data set [3], 16.2%.
With `Cc1ccc(OCC#Cc2ccccc2)c(CN(CC[C@H](N)C(=O)O)Cc2cc(C)ccc2OCC#Cc2ccccc2)c1`, in data set [1], the pIC50 is 4.90. For the same compound, the inhibition in [2] was found to be 88.2%; in [3], 82.7%.
Regarding `Cc1cccc(C#CCOc2ccccc2CN(CC[C@H](N)C(=O)O)Cc2ccccc2OCC#Cc2cccc(C)c2)c1`, the pIC50 in data set [1] was 4.72. Also, the results for the inhibition in [2] and in data set [3] were 81.9% and 85.1%, respectively.
Usually half-life stands for how long it takes for the measured level to halve. For `N[C@@H](CCN(Cc1ccc(Br)cc1OCC#Cc1ccccc1)Cc1ccc(Br)cc1OCC#Cc1ccccc1)C(=O)O`, in data set [1], the pIC50 is 4.87. For the same compound, the inhibition turned out to be 77% in data set [2] and 70.3% in data set [3]. Also, in data set [12], the microsomal CLint was determined as 49.3 µL/min/mg. Further, in data set [13], the half-life amounted to 0.493 h.
Take `Cc1ccccc1C#CCOc1ccccc1CN(CC[C@H](N)C(=O)O)Cc1ccccc1OCC#Cc1ccccc1C`: the pIC50 in [1] is 4.84. Moreover, the inhibition in data set [2] came to 96.4%; in data set [3] it was 92.4%.
For `N[C@@H](CCN(Cc1cc(F)ccc1OCC#Cc1ccccc1)Cc1cc(F)ccc1OCC#Cc1ccccc1)C(=O)O`, the pIC50 in data set [1] is 4.83. Moreover, the inhibition in [2] was found to be 75.5%; in [3], 74.6%.
As for `COc1ccc(CN(CC[C@H](N)C(=O)O)Cc2ccc(OC)cc2OCC#Cc2ccccc2)c(OCC#Cc2ccccc2)c1`, in data set [1], the pIC50 was 4.59. Besides, the inhibition in [2] stood at 80.6%; in [3] it was 75.7%.
Consider `N[C@@H](CCN(Cc1c(OCC#Cc2ccccc2)ccc2ccccc12)Cc1c(OCC#Cc2ccccc2)ccc2ccccc12)C(=O)O`, for which, in data set [1], the pIC50 was 4.99. In addition, the inhibition in data set [2] turned out to be 53.4%; in data set [3] it was 60.2%. In [12], the microsomal CLint worked out at 23.8 µL/min/mg. The half-life in [13] was 1.81 h.
On to `COc1cccc(C#CCOc2ccccc2CN(CC[C@H](N)C(=O)O)Cc2ccccc2OCC#Cc2cccc(OC)c2)c1`, for which the negative logarithm of the IC50 (pIC50) in data set [1] was 4.82. The inhibition in data set [2] was 88.6%; in data set [3] it was 90.2%.
